# Reference: paper PMC9960274, “Peptidic Inhibitors and a Fluorescent Probe for the Selective Inhibition and Labelling of Factor XIIIa Transglutaminase” (Molecules, 2023)
# “Also recorded” adds a separate entry of the source. Like-named read-outs stand apart in the source and are kept apart here. Starred links: 1 amine or outer side, 2 acyl side, 3 side chain; linkers in the order of their positions; H or OH if unused. Non-standard residues stand in square brackets, D forms with d. Residues, ends and D or L forms follow the SMILES beside them. *: point of attachment. RhodamineB = CCN(CC)c1ccc2c(-c3ccccc3C(=O)*)c3ccc(=[N+](CC)CC)cc-3oc2c1; X1 = COC(=O)/C=C/CC[C@H](N[*:1])C(=O)[*:2]; X2 = COC(=O)C=CCCC[C@H](N[*:1])C(=O)[*:2]; X3 = COC(=O)C=CC[C@H](N[*:1])C(=O)[*:2]; Nle = CCCC[C@H](N)C(=O)O; Orn = NCCC[C@H](N)C(=O)O; Dab = NCC[C@H](N)C(=O)O; Acryloyl = C=CC(=O)*; Ahx = NCCCCCC(=O)O
# Target: T1, Thrombin-activated human FXIIIa (Homo sapiens, UniProt P00488)
# T1 construct: purchased Zedira GmbH T070
# T1 sequence (P00488 39-732 limits assumed): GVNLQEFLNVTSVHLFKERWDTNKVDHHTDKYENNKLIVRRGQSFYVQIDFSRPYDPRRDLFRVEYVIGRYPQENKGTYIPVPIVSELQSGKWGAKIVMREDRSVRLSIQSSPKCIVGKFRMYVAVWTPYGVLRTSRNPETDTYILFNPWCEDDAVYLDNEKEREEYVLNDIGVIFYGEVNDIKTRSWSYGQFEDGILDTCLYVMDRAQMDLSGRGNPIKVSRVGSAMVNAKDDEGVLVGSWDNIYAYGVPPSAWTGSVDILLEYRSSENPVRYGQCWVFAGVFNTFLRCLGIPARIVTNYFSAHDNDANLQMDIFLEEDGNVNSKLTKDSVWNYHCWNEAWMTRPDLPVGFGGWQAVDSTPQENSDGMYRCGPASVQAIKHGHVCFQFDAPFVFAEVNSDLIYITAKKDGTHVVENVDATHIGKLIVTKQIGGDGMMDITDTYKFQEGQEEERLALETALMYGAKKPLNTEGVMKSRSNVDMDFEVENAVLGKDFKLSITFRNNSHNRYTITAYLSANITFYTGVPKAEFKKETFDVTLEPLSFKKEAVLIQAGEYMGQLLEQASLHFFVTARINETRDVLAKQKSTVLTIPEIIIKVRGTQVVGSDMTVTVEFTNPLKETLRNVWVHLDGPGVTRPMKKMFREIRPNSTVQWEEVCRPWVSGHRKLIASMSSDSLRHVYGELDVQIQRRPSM
# Test: Fluorescence-quenched A101 isopeptidase assay of FXIIIa inhibition kinetics
# Type: biochemical
# Details: for FXIIIa Inh. Mode: Rev = reversible, Irrev = irreversible, None = no inhibition detected up to 200 μM; for Selectivity: isozyme favoured, FXIIIa vs TG2, FXIIIa as the favoured isozyme; for selectivity for FXIIIa over TG2: from kinact/KI against FXIIIa and TG2
# Method: All inhibitors synthesised herein were evaluated for inhibition against FXIIIa, using the fluorescence-quenched A101 isopeptidase assay, and against TG2, using the colorimetric AL5 transamidase assay. The assay substrates A101 and AL5 both present labile bonds that are cleaved by the activities of their corresponding transglutaminases, resulting in the release of a fluorophore or chromophore moiety, respectively. The rate of consumption of these assay substrates, indicated by increases in fluorescence or absorbance over time, can be detected for measuring enzyme activity. Assays were run in duplicate at constant reporter substrate concentration with varying concentrations of inhibitor. The type of inhibition was determined through visual inspection of the fluorescence-time curvature; termination of the enzymatic reaction with the substrate at a plateau lower than the no-inhibitor positive control is indicative of irreversible inhibition. On the other hand, convergence to a common plateau indicates reversible inhibition.
# Irreversibility was tested further through substrate spike experiments. As shown in Supplementary Materials Figures S1–S3, an additional substrate was added to inhibited and uninhibited enzyme reactions after the completion of the positive control reaction. […] Analysis was carried out through corrected Dixon modelling in the case of reversible kinetics, to obtain Ki values (Figure 5B), and hyperbolic saturation modelling was used to obtain kinact and KI for inhibitors showing irreversibility (Figure 5E). For cases in which the tested inhibitor concentrations were not high enough to reach saturation, a linear regression provided an estimate of the inhibitor’s kinact/KI ratio (Figure 5D). Further details concerning data collection and analysis are provided in the Materials and Methods section.
# A previously reported fluorescence-quenched isopeptidase assay using the commercially available substrate A101 (Zedira GmbH, Darmstadt, Germany) was employed for the determination of FXIIIa inhibition kinetics. All assays were performed at 37 °C on 96-well plates, with fluorescence (excitation at 313 nm, emission at 418 nm) measured continuously using a BioTek Synergy 4 plate reader. For each inhibitor, duplicate trials were run in parallel at 4 inhibitor concentrations, along with duplicate positive controls (no inhibitor) and negative controls (no enzyme and no inhibitor). First, 125 μL of aqueous buffer 1 (111 mM Tris, 16.7 mM CaCl2, 333 mM NaCl, pH 7.5) and 18 μL of aqueous buffer 2 (55.6 mM TCEP, 149 mM H-Gly-OMe, pH 7.5) were added to each well, along with 5 μL of A101 stock solution (4000 μM in DMSO). Next, the appropriate amount of the desired inhibitor, dissolved in DMSO, was added, in addition to the amount of distilled water necessary to reach a total volume of 180 μL in each well. Negative controls were diluted to a final volume of 200 μL. Thrombin-activated human FXIIIa (T070, Zedira GmbH, Darmstadt, Germany), stored at −80 °C in 20-μL aliquots (1 mg/mL enzyme) of storage buffer (50.0 mM Tris, 1.00 mM TCEP, 150 mM NaCl, pH 7.5) was warmed to room temperature and diluted to 0.0741 mg/mL through the addition of 250 μL of storage buffer. The diluted enzyme solution was then aliquoted into 10 separate PCR tubes. The assay plate and enzyme tubes were subsequently incubated at 37 °C for 10 min. After the completion of the incubation period, 20 μL of diluted FXIIIa solution was added from each PCR tube to all wells in the plate excluding the negative controls using a multi-channel pipette. This produced a final volume of 200 μL per well, with final reaction conditions of pH 7.5, 74.4 mM Tris, 10.4 mM CaCl2, 223 mM NaCl, 5.10 mM TCEP, 13.4 mM H-Gly-OMe, 100 μM A101, and 7.41 μg/mL (94 nM) FXIIIa. The range of inhibitor concentrations tested spanned from 1 to 200 μM, and the final DMSO concentration in the reaction mixture was kept below 10% v/v. […]
# [1] = small molecule series, reversible, Dixon plot, Interference = data afflicted by fluorescence interference, read-out: FXIIIa Ki
# [2] = peptidic series, corrected Dixon plot, α = 13.5, read-out: FXIIIa Ki or KI: Ki of reversible inhibitors
# [3] = small molecule series, reversible, Dixon plot, Interference = data afflicted by fluorescence interference
# [4] = dansyl and sulfonyl-naphthalene compounds, data afflicted by fluorescence interference and set aside, read-out: FXIIIa apparent Ki (interference)
molecule,measurement,setting,value
C=CC(=O)NCC(NC(=O)CC(=O)O)C(=O)N1CCN(C(=O)c2cccc3ccccc23)CC1 (centres unmarked) [Compound 72],Ki,[1],249 ± 69.3 µM
CCCC[C@H](NC(=O)[C@H](CC=CC(=O)OC)NC(=O)[C@@H](CC(=O)O)NC(C)=O)C(=O)N[C@@H](CCCC)C(=O)N[C@@H](CC(C)C)C(=O)N1CCC[C@H]1C(=O)N[C@@H](Cc1c[nH]c2ccccc12)C(=O)N1CCC[C@H]1C(=O)O [Compound 45] (Ac-[dD][X3][Nle][Nle]LPWP-OH),FXIIIa Inh. Mode,,weak reversible inhibition and Rev
same,Selectivity,,FXIIIa
same,Ki,[2],53 ± 12 µM
"C=CC(=O)NCC[C@H](NC(=O)[C@@H](CC(=O)O)NC(C)=O)C(=O)N[C@@H](CCCC)C(=O)N[C@@H](CCCC)C(=O)N[C@@H](CC(C)C)C(=O)N1CCC[C@H]1C(=O)N[C@@H](Cc1c[nH]c2ccccc12)C(=O)N1CCC[C@H]1C(=O)O [Compound 12, Ac-D-Asp-Dab(Acrylamide)-Nle-Nle-Leu-Pro-Trp-Pro-OH] (Ac-[dD][Dab](Acryloyl)[Nle][Nle]LPWP-OH)",FXIIIa Inh. Mode,,Rev
same,Selectivity,,FXIIIa
same,Ki,[2],193 ± 20 µM
C=CC(=O)NCCC[C@H](NC(=O)[C@@H](CC(=O)O)NC(C)=O)C(=O)N[C@@H](CCCC)C(=O)N[C@@H](CCCC)C(=O)N[C@@H](CC(C)C)C(=O)N1CCC[C@H]1C(=O)N[C@@H](Cc1c[nH]c2ccccc12)C(=O)N1CCC[C@H]1C(=O)O [Compound 13] (Ac-[dD][Orn](Acryloyl)[Nle][Nle]LPWP-OH),FXIIIa Inh. Mode,,Rev
same,Selectivity,,FXIIIa
same,Ki,[2],135 ± 16 µM
C=CC(=O)NCCCC[C@H](NC(=O)[C@@H](CC(=O)O)NC(C)=O)C(=O)N[C@@H](CCCC)C(=O)N[C@@H](CCCC)C(=O)N[C@@H](CC(C)C)C(=O)N1CCC[C@H]1C(=O)N[C@@H](Cc1c[nH]c2ccccc12)C(=O)N1CCC[C@H]1C(=O)O [Compound 14] (Ac-[dD]K(Acryloyl)[Nle][Nle]LPWP-OH),FXIIIa Inh. Mode,,Rev
same,Selectivity,,FXIIIa
same,Ki,[2],125 ± 20 µM
C=CC(=O)NC(CNC(=O)CCC(=O)O)C(=O)N1CCN(C(=O)c2cccc3ccccc23)CC1 (centres unmarked) [Compound 84],Ki,[1],108 ± 19.1 µM
CCCC[C@H](NC(=O)[C@H](CCCC=CC(=O)OC)NC(=O)[C@@H](CC(=O)O)NC(C)=O)C(=O)N[C@@H](CCCC)C(=O)N[C@@H](CC(C)C)C(=O)N1CCC[C@H]1C(=O)N[C@@H](Cc1c[nH]c2ccccc12)C(=O)N1CCC[C@H]1C(=O)O [Compound 47] (Ac-[dD][X2][Nle][Nle]LPWP-OH),FXIIIa Inh. Mode,,reversible and highly potent reversible FXIIIa inhibition and Rev
same,Selectivity,,Irrev TG2
same,Ki,[2],0.0941 ± 0.0105 µM
"C=CC(=O)NCC(NC(=O)C1(C(=O)O)CC1)C(=O)N1CCN(S(=O)(=O)c2cccc3c(N(C)C)cccc23)CC1 [Compound 74, Acid-Cyclopropyl-L-Dap(Acryl)-Piperazine-Dansyl]",FXIIIa Ki,[3],Interference *
CCCC[C@H](NC(=O)[C@H](CC/C=C/C(=O)OC)NC(=O)[C@@H](CC(=O)O)NC(=O)CCCCCNC(=O)[C@@H]1CCCN1C(=O)c1ccccc1-c1c2ccc(=[N+](CC)CC)cc-2oc2cc(N(CC)CC)ccc12)C(=O)N[C@@H](CCCC)C(=O)N[C@@H](CC(C)C)C(=O)N1CCC[C@H]1C(=O)N[C@@H](Cc1c[nH]c2ccccc12)C(=O)N1CCC[C@H]1C(=O)O [Compound 93] (RhodamineB-P[Ahx][dD][X1][Nle][Nle]LPWP-OH),selectivity for FXIIIa over TG2,,around 6.5 fold
same,selectivity for FXIIIa over TG2,listed as KM93,6.5 fold
same,kinact/KI,"irreversible inhibitors, saturation fit or linear regression",2120 M⁻¹ s⁻¹
Ac-D-Asp-Dap(Acrylamide)-Nle-Nle-Leu-Pro-Trp-Pro-OH [Compound 11],FXIIIa Inh. Mode,,complete loss of inhibition; also recorded: no inhibition; also recorded: None *
COC(=O)C=CCCC(NC(=O)CCC(=O)O)C(=O)N1CCN(C(=O)c2cccc3ccccc23)CC1 (centres unmarked) [Compound 87],Ki,[1],131 µM
C=CC(=O)NCC(NS(=O)(=O)CC(=O)O)C(=O)N1CCN(S(=O)(=O)c2cccc3c(N(C)C)cccc23)CC1 (centres unmarked) [Compound 79],Ki,[4],26.7 ± 1.3 µM
same,FXIIIa Ki,[3],Interference *
COC(=O)C=CCCC(NC(=O)c1ccccc1C(=O)O)C(=O)N1CCN(C(=O)c2cccc3ccccc23)CC1 (centres unmarked) [Compound 88],Ki,[1],265 ± 46.8 µM
"C=CC(=O)NCC(NC(=O)CCC(=O)O)C(=O)N1CCN(S(=O)(=O)c2cccc3ccccc23)CC1 [Compound 76, Succinyl-L-Dap(Acryl)-Piperazine-Sulfonyl-Naphthalene]",Ki,[4],64.3 ± 5.1 µM
same,FXIIIa Ki,[3],Interference *
"C=CC(=O)NCC(NC(=O)CCC(=O)O)C(=O)N1CCN(S(=O)(=O)c2cccc3c(N(C)C)cccc23)CC1 [Compound 75, Succinyl-L-Dap(Acryl)-Piperazine-Dansyl]",FXIIIa Ki,[3],Interference *
"C=CC(=O)NCC(NC(=O)CCC(=O)O)C(=O)N1CCN(C(=O)c2cccc3ccccc23)CC1 [Compound 77, Succinyl-L-Dap(Acryl)-Piperazine-Naphthoyl]",Ki,[1],69 ± 4.1 µM
C=CC(=O)NCC(NC(=O)CC(=O)O)C(=O)N1CCN(S(=O)(=O)c2cccc3c(N(C)C)cccc23)CC1 (centres unmarked) [Compound 71],FXIIIa Ki,[3],Interference *
C=CC(=O)NCC(NC(=O)C1(C(=O)OC)CC1)C(=O)N1CCN(S(=O)(=O)c2cccc3c(N(C)C)cccc23)CC1 (centres unmarked) [Compound 73],FXIIIa Ki,[3],Interference *
